Data: US8268881B2, “Carboxamide derivatives as muscarinic receptor antagonists” (Pfizer Limited, priority 2005, dated 2012)
Read-outs that look alike come from different tables or passages of the source.

Target: T1, human muscarinic M3 receptor (Homo sapiens, UniProt P20309)
T1 construct: expressed in transfected cells
Assay: hM3 β-Lac potency assay (cell based β-lactamase)
Procedure: M3 potency was determined in CHO-K1 cells transfected with the NFAT-Betalactamase gene. CHO (Chinese Hamster Ovary) cells recombinantly expressing the human muscarinic M3 receptor were transfected with the NFAT_β-Lac_Zeo plasmid.
The cells were re-suspended at 2×10^5 cells/ml in growth medium (composition as described above). […] Inhibition curves were plotted and IC50 values generated using a 4-parameter sigmoid fit and converted to Ki values using the Cheng-Prusoff correction and the KD value for carbamyl choline in the assay.

[1] = CHO cells expressing human M3 receptor, NFAT β-lactamase reporter, inhibition of 80 nM carbamyl choline signal, 4 h, IC50 converted to Ki by Cheng-Prusoff, read-out: Cell based β-lactamase M3 Ki

T1 sequence (P20309 whole entry): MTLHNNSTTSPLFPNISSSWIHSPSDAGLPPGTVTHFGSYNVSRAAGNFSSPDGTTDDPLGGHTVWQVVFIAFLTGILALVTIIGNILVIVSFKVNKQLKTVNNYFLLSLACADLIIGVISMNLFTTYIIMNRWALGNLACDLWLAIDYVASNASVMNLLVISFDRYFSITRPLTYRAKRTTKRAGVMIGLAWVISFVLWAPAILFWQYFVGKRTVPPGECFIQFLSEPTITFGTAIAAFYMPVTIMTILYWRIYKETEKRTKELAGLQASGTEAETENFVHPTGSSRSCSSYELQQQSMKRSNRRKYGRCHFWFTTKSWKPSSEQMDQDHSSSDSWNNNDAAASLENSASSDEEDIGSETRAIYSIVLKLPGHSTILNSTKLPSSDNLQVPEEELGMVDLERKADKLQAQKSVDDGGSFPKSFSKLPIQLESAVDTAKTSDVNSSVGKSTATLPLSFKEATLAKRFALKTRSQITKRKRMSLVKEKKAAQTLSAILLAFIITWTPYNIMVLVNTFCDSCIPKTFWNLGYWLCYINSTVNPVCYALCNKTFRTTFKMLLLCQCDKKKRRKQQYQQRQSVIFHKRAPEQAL

Row | Ki [1] [nM] | Compound | other results
1 | – | CC(C)(CCC(C#N)(c1ccccc1)c1ccccc1)N1CC[C@H](Oc2ccccc2)C1 [Example 1, 5-Methyl-5-[(3S)-3-phenoxypyrrolidin-1-yl]-2,2-diphenylhexanenitrile] | Ki (CHO cells expressing human M3 receptor, NFAT β-lactamase reporter, […], IC50 converted to Ki by Cheng-Prusoff, read-out: Cell based β-lactamase M3 Ki): 8.34 nM
2 | 1.55 | CC(C)(CCC(C(N)=O)(c1ccccc1)c1ccccc1)N1CC[C@@H](Oc2ccccc2)C1 [Example 4, 5-Methyl-5-[(3R)-3-phenoxypyrrolidin-1-yl]-2,2-diphenylhexanamide] | –
3 | 1.02 | COc1cccc(O[C@H]2CCN(C(C)(C)CCC(C(N)=O)(c3ccccc3)c3ccccc3)C2)c1 [Example 6, 5-[(3S)-3-(3-methoxyphenoxy)pyrrolidin-1-yl]-5-methyl-2,2-diphenylhexanamide] | –
4 | 1.87 | CC(C)(CCC(C(N)=O)(c1ccccc1)c1ccccc1)N1CC[C@@H](OCc2ccccc2)C1 [Example 9, 5-[(3R)-3-(Benzyloxy)pyrrolidin-1-yl]-5-methyl-2,2-diphenylhexanamide] | –
5 | 3.27 | CC(C)(CCC(C(N)=O)(c1ccccc1)c1ccccc1)N1CC[C@H](OCc2ccccc2)C1 [Example 11, 5-[(3S)-3-(Benzyloxy)pyrrolidin-1-yl]-5-methyl-2,2-diphenylhexanamide] | –
6 | 0.3 | COc1cccc(O[C@@H]2CCN(C(C)(C)CCC(C(N)=O)(c3ccccc3)c3ccccc3)C2)c1 [Example 12, 5-[(3R)-3-(3-Methoxyphenoxy)pyrrolidin-1-yl]-5-methyl-2,2-diphenylhexanamide] | –
7 | 1.32 | Cc1cccc(O[C@H]2CCN(C(C)(C)CCC(C(N)=O)(c3ccccc3)c3ccccc3)C2)c1 [Example 14, 5-Methyl-5-[(3S)-3-(3-methylphenoxy)pyrrolidin-1-yl]-2,2-diphenylhexanamide] | –
8 | 4.25 | CC(C)(CCC(C(N)=O)(c1ccccc1)c1ccccc1)N1CC[C@@H](Oc2ccc3ncoc3c2)C1 [Example 15, 5-[(3R)-3-(1,3-Benzoxazol-6-yloxy)pyrrolidin-1-yl]5-methyl-2,2-diphenylhexanamide] | –
9 | 6.96 | CC(C)(CCC(C(N)=O)(c1ccccc1)c1ccccc1)N1CC[C@H](Oc2ccc(-c3cccc(O)c3)cc2)C1 [Example 18, 5-{(3S)-3-[(3′-Hydroxybiphenyl-4-yl)oxy]pyrrolidin-1-yl}-5-methyl-2,2-diphenylhexanamide] | –
10 | 5.56 | CC(C)(CCC(C(N)=O)(c1ccccc1)c1ccccc1)N1CC[C@H](Oc2cccc(-c3cccc(O)c3)c2)C1 [Example 19, 5-{(3S)-3-[(3′-Hydroxybiphenyl-3-yl)oxy]pyrrolidin-1-yl}-5-methyl-2,2-diphenylhexanamide] | –
11 | 108 | CC(C)(CCC(C(N)=O)(c1ccccc1)c1ccccc1)N1CC[C@H](Oc2ccc3cc(O)ccc3c2)C1 [Example 20, 5-{(3S)-3-[(6-Hydroxy-2-naphthyl)oxy]pyrrolidin-1-yl}-5-methyl-2,2-diphenylhexanamide] | –
12 | 20.7 | CC(C)(CCC(C(N)=O)(c1ccccc1)c1ccccc1)N1CC[C@H](Oc2ccc(C(F)(F)F)cc2)C1 [Example 24, 5-[(3S)-3-(4-trifluoromethyl-phenoxy)pyrrolidin-1-yl]-5-methyl-2,2-diphenylhexanamide] | –
13 | 1.67 | CC(C)(CCC(C(N)=O)(c1ccccc1)c1ccccc1)N1CC[C@@H](Oc2ccc(C(F)(F)F)cc2)C1 [Example 26, 5-[(3R)-3-(4-trifluoromethyl-phenoxy)pyrrolidin-1-yl]-5-methyl-2,2-diphenylhexanamide] | –
14 | 47.4 | COc1ccc(O[C@@H]2CCN(C(C)(C)CCC(C(N)=O)(c3ccccc3)c3ccccc3)C2)cc1Cl [Example 28, 5-[(3R)-3-(3-chloro-4-methoxy-phenoxy)pyrrolidin-1-yl]-5-methyl-2,2-diphenylhexanamide] | –
15 | 2.26 | Cc1cc(O)cc(O[C@H]2CCN(C(C)(C)CCC(C(N)=O)(c3ccccc3)c3ccccc3)C2)c1 [Example 29, 5-[(3S)-3-(3-Hydroxy-5-methyl-phenoxy)-pyrrolidin-1-yl]-5-methyl-2,2-diphenyl-hexanoic acid amide] | –
16 | 0.333 | Cc1c(O)cccc1O[C@H]1CCN(C(C)(C)CCC(C(N)=O)(c2ccccc2)c2ccccc2)C1 [Example 30, 5-[(3S)-3-(3-Hydroxy-2-methyl-phenoxy)-pyrrolidin-1-yl]-5-methyl-2,2-diphenyl-hexanoic acid amide] | –
17 | 45.1 | CC(C)(CCC(C(N)=O)(c1ccccc1)c1ccccc1)N1CC[C@H](Oc2cc(O)c(Cl)cc2Cl)C1 [Example 31, 5-[(3S)-3-(2,4-Dichloro-5-Hydroxy-phenoxy)-pyrrolidin-1-yl]-5-methyl-2,2-diphenyl-hexanoic acid amide] | –
18 | 36.4 | CC(C)(CCC(C(N)=O)(c1ccccc1)c1ccccc1)N1CC[C@H](Oc2cc(Cl)c(Cl)cc2O)C1 [Example 32, 5-[(3S)-3-(4,5-Dichloro-2-Hydroxy-phenoxy)-pyrrolidin-1-yl]-5-methyl-2,2-diphenyl-hexanoic acid amide] | –
19 | 6.57 | CC(C)(CCC(C(N)=O)(c1ccccc1)c1ccccc1)N1CC[C@H](Oc2cc(O)cc(Cl)c2)C1 [Example 34, 5-[(3S)-3-(3-Chloro-5-hydroxy-phenoxy)-pyrrolidin-1-yl]-5-methyl-2,2-diphenyl-hexanoic acid amide] | –
20 | 7.28 | COc1cc(Cl)ccc1O[C@H]1CCN(C(C)(C)CCC(C(N)=O)(c2ccccc2)c2ccccc2)C1 [Example 35, 5-[(3S)-3-(4-Chloro-2-Methoxy-phenoxy)-pyrrolidin-1-yl]-5-methyl-2,2-diphenyl-hexanoic acid amide] | –
21 | – | CC(C)(CCC(C(N)=O)(c1ccccc1)c1ccccc1)N1CC[C@H](Oc2ccc(Cl)cc2O)C1 [Example 36, 5-[(3S)-3-(4-Chloro-2-Hydroxy-phenoxy)-pyrrolidin-1-yl]-5-methyl-2,2-diphenyl-hexanoic acid amide] | Ki: 17.6 nM
22 | 5.01 | COc1cccc(O[C@H]2CCN(C(C)(C)CCC(C(N)=O)(c3ccccc3)c3ccccc3)C2)c1Cl [Example 37, 5-[(3S)-3-(2-Chloro-3-Methoxy-phenoxy)-pyrrolidin-1-yl]-5-methyl-2,2-diphenyl-hexanoic acid amide] | –
23 | 0.996 | CC(C)(CCC(C(N)=O)(c1ccccc1)c1ccccc1)N1CC[C@H](Oc2cccc(O)c2Cl)C1 [Example 38, 5-[(3S)-3-(2-Chloro-3-Hydroxy-phenoxy)-pyrrolidin-1-yl]-5-methyl-2,2-diphenyl-hexanoic acid amide] | –
24 | 1.97 | CC(C)(CCC(C(N)=O)(c1ccccc1)c1ccccc1)N1CC[C@H](Oc2ccc(Cl)c(O)c2)C1 [Example 39, 5-[(3S)-3-(4-Chloro-3-Hydroxy-phenoxy)-pyrrolidin-1-yl]-5-methyl-2,2-diphenylhexanoic acid amide] | –
25 | 6.09 | CC(C)(CCC(C(N)=O)(c1ccccc1)c1ccccc1)N1CC[C@H](Oc2cc(O)ccc2Cl)C1 [Example 40, 5-[(3S)-3-(2-Chloro-5-Hydroxy-phenoxy)-pyrrolidin-1-yl]-5-methyl-2,2-diphenyl-hexanoic acid amide] | –

Row | Compound | Ki [1] [nM] | other results
26 | CC(C)(CCC(C(N)=O)(c1ccccc1)c1ccccc1)N1CC[C@H](Oc2ccc(Cl)cc2)C1 [Example 16, 5-[(3S)-3-(4-Chlorophenoxy)pyrrolidin-1-yl]-5-methyl-2,2-diphenylhexanamide] | 1.85 | –
27 | CC(C)(CCC(C(N)=O)(c1ccccc1)c1ccccc1)N1CC[C@H](Oc2cccc(Br)c2)C1 [Example 17, 5-[(3S)-3-(3-Bromophenoxy)pyrrolidin-1-yl]-5-methyl-2,2-diphenylhexanamide] | 5.11 | –
